Laboratory results as given in patent US12721809B2, “Formulation for treating ophthalmic conditions” (Guangzhou KangRui Biological Pharmaceutical Technology Co., …, priority 2021, dated 2026).
≈ marks a conversion by molar mass, not a printed value. Where “and” joins values, the source holds several entries; their conditions need not be identical. Equal values may be shown once.

Key:
Type in all cases: physicochemical
[1] = API content/purity by liquid chromatography before and after pulverization; settings: for HPLC peak (percentage of peak area), Impurity 1: Impurity 1 = Intermediate A; for HPLC peak (percentage of peak area), Impurity 2: Impurity 2 = Intermediate B
Protocol: API content was determined by liquid chromatography, Diamonsil® plus-C18 column (4.6×150 mm, […]), mobile phase: acetonitrile (with 0.2‰ trifluoroacetic acid):water (with 0.2‰ trifluoroacetic acid), acetonitrile gradient 5-95%, time: 17 min, column temperature 20° C., detection wavelength 254 nm. The results are shown as follows and in FIGS. 5A-5B: […]

[2] = Solubility of KDR2-2 in different media
[3] = Particle size of KDR2-2 API before and after pulverization (Malvern); settings: for Particle size Dv (10) / Particle size Dv (50) / Particle size Dv (90): dry method (Mastersizer 3000); for D10 (μm) / D50 (μm) / D90 (μm): listed as KDR2-2 API
Protocol: Particle sizes: KDR2-2 is a poorly soluble drug with large particle sizes. The drug substance should be micronized to meet the quality standards of KDR2-2 Suspension Eye Drop. The result of microscopic observation of KDR2-2 (Batch #CK0120554-02-03P-01-32-01) in 1% Kolliphor® HS 15 is shown in FIG. 1, and the particle sizes of KDR2-2 (Batch #CK0120554-02-03P-01-32-01) in 1% Kolliphor® HS 15 were measured by malvern and is presented in Table 4.
(§1) The drug particle size for suspension eye drops should be reduced to level <10 μm in an attempt to avoid excessive lacrimation, the micronization process of drug substance was studied. The micronization process parameters of the jet are: injection pressure is 5 bar; crushing pressure is 3 bar. The particle size and distribution of the KDR2-2 API were measured before and after pulverization, to determine whether the API satisfies the formulation requirements after pulverization.
as §1, with “studied. Certain amount of KDR2-2 API was taken and fed into a jet mill.” for “studied.”, “bar; the media for micronization is air.” for “bar.”, “was” for “were”, “pulverization using the dry method (Mastersizer 3000, Malvern),” for “pulverization,”

[4] = KDR2-2 API before micronization
[5] = KDR2-2 API after micronization (jet mill)
[6] = after pulverization (jet mill, 5 bar/3 bar)
[7] = before pulverization, in 1% Kolliphor® HS 15, batch CK0120554-02-03P-01-32-01

HPLC peak (percentage of peak area), KDR2-2 ([1]; KDR2-2 API after micronization): Peak area % = 99.839% | HPLC peak (percentage of peak area), Impurity 1 ([1]; KDR2-2 API after micronization): Peak area % = 0.085% | HPLC peak (percentage of peak area), Impurity 2 ([1]; KDR2-2 API after micronization): Peak area % = 0.075% | HPLC peak (percentage of peak area), KDR2-2 [1, 4]: Peak area % = 99.820% | HPLC peak (percentage of peak area), Impurity 1 [1, 4]: Peak area % = 0.08% | HPLC peak (percentage of peak area), Impurity 2 [1, 4]: Peak area % = 0.101% | solubility ([2]; acetone, organic solvent or mixture): 7700 to 11500 µg/mL (≈ 18.1 to 27 mM) | solubility ([2]; acetone/water, aqueous with cosolvent or surfactant or cyclodextrin): 7300 to 11000 µg/mL (≈ 17.2 to 25.9 mM) | solubility ([2]; acetonitrile, organic solvent or mixture): 1700 to 1900 µg/mL (≈ 4 to 4.47 mM) | solubility ([2]; chloroform, organic solvent or mixture): < 1100 µg/mL | solubility ([2]; dimethylsulfoxide, organic solvent or mixture): > 28000 µg/mL | solubility ([2]; ethanol, organic solvent or mixture): 2400 to 2700 µg/mL (≈ 5.64 to 6.35 mM) | solubility ([2]; ethyl acetate, organic solvent or mixture): 3800 to 4600 µg/mL (≈ 8.93 to 10.8 mM) | solubility ([2]; iso-propyl alcohol, organic solvent or mixture): < 1100 µg/mL | solubility ([2]; methanol, organic solvent or mixture): 6300 to 9500 µg/mL (≈ 14.8 to 22.3 mM) | solubility ([2]; methyl isobutyl ketone, organic solvent or mixture): 1800 to 2200 µg/mL (≈ 4.23 to 5.17 mM) | solubility ([2]; methyl tert-butyl ether, organic solvent or mixture): < 1200 µg/mL | solubility ([2]; tetrahydrofuran, organic solvent or mixture): > 18000 µg/mL | solubility ([2]; toluene, organic solvent or mixture): < 900 µg/mL | solubility ([2]; water): < 1100 µg/mL | Particle size Dv (10) [3, 5]: 0.304 μm | Particle size Dv (50) [3, 5]: 1.75 μm | Particle size Dv (90) [3, 5]: 3.83 μm | Particle size Dv (10) [3, 4]: 2.33 μm | Particle size Dv (50) [3, 4]: 10.5 μm | Particle size Dv (90) [3, 4]: 472 μm | D10 (μm) [3, 6]: 0.957 μm and 0.949 μm and 0.946 μm | D50 (μm) [3, 6]: 3.55 μm and 3.46 μm and 3.41 μm | D90 (μm) [3, 6]: 8.03 μm and 7.59 μm and 7.47 μm | D10 (μm) [3, 7]: 55.9 μm and 33.0 μm and 45.5 μm | D50 (μm) [3, 7]: 162 μm and 105 μm and 138 μm | D90 (μm) [3, 7]: 375 μm and 292 μm and 353 μm
Structure (SMILES): Nc1nccc(Oc2ccc3c(C(=O)Nc4cccc(C(F)(F)F)c4)cccc3n2)n1 [KDR2-2, 2-(2-Aminopyrimidin-4-yloxy)-N-(3-(trifluoromethyl)phenyl)quinoline-5-carboxamide]
